The record followed here is US20140323504A1, “Pyrazolo[4,3-c]Pyridine Derivatives As Kinase Inhibitors” (Cellzome Limited, priority 2011, published 2014).

Each structure is given as a SMILES string.

For this assay, the target named is T1, BLK (Homo sapiens, UniProt P51451).
T1 construct: endogenous in cells; host or cells: 1:1 mix of Jurkat and Ramos cell lysates
In words: Radiometric protein kinase assay (33PanQinase, ProQinase), BLK. Type of assay: biochemical. The following applies: ATP at apparent Km; read-out: BLK enzyme assay IC50. As for the experimental part:
A radiometric protein kinase assay (^33PanQinase® Activity Assay; ProQinase GmbH, Freiburg, Germany) was used for measuring the kinase activity of the protein kinases BLK, BTK, ITK and JAK3. All kinase assays were performed in 96-well FlashPlates™ from PerkinElmer (Boston, Mass., USA) in a 50 μl reaction volume. The reaction cocktail was pipetted in four steps in the following order: • 20 μl of assay buffer (standard buffer) • 5 μl of ATP solution (in H2O) • 5 μl of test compound (in 10% DMSO) • 10 μl of substrate/10 μl of enzyme solution (premixed)
The reaction cocktails were incubated at 30° C. for 60 minutes. The reaction was stopped with 50 μl of 2% (v/v) H3PO4, plates were aspirated and washed two times with 200 μl 0.9% (w/v) NaCl. Incorporation of ^33Pi was determined with a microplate scintillation counter (Microbeta, Wallac). All assays were performed with a BeckmanCoulter/SAGIAN™ Core System.

T1 sequence (P51451 whole entry): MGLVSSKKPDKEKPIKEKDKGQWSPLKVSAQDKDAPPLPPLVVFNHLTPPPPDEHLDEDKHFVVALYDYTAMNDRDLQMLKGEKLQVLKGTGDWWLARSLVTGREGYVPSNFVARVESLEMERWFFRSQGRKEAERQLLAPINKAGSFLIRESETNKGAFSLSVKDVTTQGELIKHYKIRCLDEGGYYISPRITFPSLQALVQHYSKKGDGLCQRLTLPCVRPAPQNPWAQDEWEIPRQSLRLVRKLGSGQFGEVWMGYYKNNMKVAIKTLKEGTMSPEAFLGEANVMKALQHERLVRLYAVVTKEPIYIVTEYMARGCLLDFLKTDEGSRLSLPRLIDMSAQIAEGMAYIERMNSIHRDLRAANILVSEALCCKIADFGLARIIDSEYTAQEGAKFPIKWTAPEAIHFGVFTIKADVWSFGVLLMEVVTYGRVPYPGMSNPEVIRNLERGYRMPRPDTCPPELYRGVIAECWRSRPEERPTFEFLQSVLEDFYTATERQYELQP

The term IC50 denotes the concentration at which inhibition is half-maximal. For `C=CC(=O)Nc1cc(Cn2ncc3cnc(Nc4cnn(C)c4)nc32)ccc1F` [Example 2, […]], the IC50 amounted to 2000 nM.
